This note sets out measurements from ChEMBL document CHEMBL4825760, “Interleukin-17A Peptide Aptamers with an Unexpected Binding Moiety Selected by cDNA Display under Heterogenous Conditions” (ACS Med Chem Lett, 2021).

Calls of active or inactive are those of the source. The calls are words filed in the database; no cut-off is given here. *1 amine or outer side, *2 acyl side, *3 side chain or, on linkers, in order; H or OH if unused. Where a SMILES comes first, the peptide text is derived from it. Bridges are numbered along the chain shown (N, C = ends). oXylylene = c1ccc(C[*:2])c(C[*:1])c1

Series [1] deals with T1, Interleukin-17A (Homo sapiens, UniProt Q16552).
T1 sequence (Q16552 whole entry): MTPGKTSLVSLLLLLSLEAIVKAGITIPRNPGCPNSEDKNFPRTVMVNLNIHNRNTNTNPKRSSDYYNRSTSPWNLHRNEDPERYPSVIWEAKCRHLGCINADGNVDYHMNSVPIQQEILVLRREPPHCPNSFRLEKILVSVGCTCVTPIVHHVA
Nature of the series: Binding affinity to human IL-17A assessed as dissociation constant in PBS-T measured after 60 mins by Biolayer interferometry.

For series [2], the target named is T1, Interleukin-17A. Nature of the series: Binding affinity to biotinylated human IL-17A by SPR analysis. (In general: Surface plasmon resonance follows binding to a sensor surface in real time, without labels.)
The nature of series [3]: Stability of the compound in 50% human serum assessed as compound decomposition incubated for 24 hrs by SDS-PAGE analysis.
Series [4] concerns the target T2, Interleukin-17F (Homo sapiens) (UniProt Q96PD4).
T2 sequence (whole entry): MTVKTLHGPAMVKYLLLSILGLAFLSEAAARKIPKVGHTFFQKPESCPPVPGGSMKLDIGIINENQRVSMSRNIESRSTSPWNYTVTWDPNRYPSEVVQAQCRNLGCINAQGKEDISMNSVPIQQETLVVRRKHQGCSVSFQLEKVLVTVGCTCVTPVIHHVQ
Nature of the series: Binding affinity to human IL-17F.

In series [5] the target is T3, Interleukin-17A (Mus musculus) (UniProt Q62386).
T3 sequence (whole entry): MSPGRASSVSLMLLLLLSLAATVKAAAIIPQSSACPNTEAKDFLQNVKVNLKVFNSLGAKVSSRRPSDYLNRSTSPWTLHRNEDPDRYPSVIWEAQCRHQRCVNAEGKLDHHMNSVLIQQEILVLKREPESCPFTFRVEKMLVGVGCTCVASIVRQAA
Nature of the series: Binding affinity to mouse IL-17A.

As to `CC(C)C[C@H](NC(=O)[C@H](C)NC(=O)[C@@H](NC(=O)[C@H](CC(C)C)NC(=O)[C@H](CC(C)C)NC(=O)[C@H](CCC(=O)O)NC(=O)[C@@H](N)CS)[C@@H](C)O)C(=O)NCC(=O)N[C@@H](Cc1ccc(O)cc1)C(=O)N1CCC[C@H]1C(=O)N[C@H](C(=O)N[C@@H](Cc1ccc(O)cc1)C(=O)N[C@@H](CS)C(=O)O)C(C)C` (H-CELLTALGYPVYC-OH), the Kd entry on Interleukin-17A [1] is recorded as “Not Active”. Consider `CC(C)C[C@H](NC(=O)[C@H](CCC(=O)O)NC(=O)[C@@H](N)CS)C(=O)N[C@@H](CC(C)C)C(=O)N[C@H](C(=O)N[C@@H](Cc1ccccc1)C(=O)N[C@@H](C)C(=O)NCC(=O)N[C@@H](Cc1ccc(O)cc1)C(=O)N1CCC[C@H]1C(=O)N[C@H](C(=O)N[C@@H](Cc1ccc(O)cc1)C(=O)N[C@@H](CS)C(=O)O)C(C)C)[C@@H](C)O` (H-CELLTFAGYPVYC-OH), for which the Kd result at Interleukin-17A [1] is “Not Active”. Regarding `CC(C)C[C@@H]1NC(=O)[C@H](Cc2ccccc2)NC(=O)[C@H]([C@@H](C)O)NC(=O)[C@H](CC(C)C)NC(=O)[C@H](CC(C)C)NC(=O)[C@H](CCC(=O)O)NC(=O)[C@@H](NC(=O)[C@H](CO)NC(=O)CN)CSSC[C@@H](C(=O)NCC(=O)NCC(=O)NCC(=O)N[C@@H](CO)C(=O)N[C@@H](Cc2cnc[nH]2)C(=O)N[C@@H](Cc2cnc[nH]2)C(=O)N[C@@H](Cc2cnc[nH]2)C(=O)N[C@@H](Cc2cnc[nH]2)C(=O)N[C@@H](Cc2cnc[nH]2)C(=O)N[C@@H](Cc2cnc[nH]2)C(=O)O)NC(=O)[C@H](Cc2ccc(O)cc2)NC(=O)[C@H](C(C)C)NC(=O)[C@@H]2CCCN2C(=O)[C@H](Cc2ccc(O)cc2)NC(=O)CNC1=O` (H-GSCELLTFLGYPVYCGGGSHHHHHH-OH; disulfide 3-15), the Kd entry at Interleukin-17A [2] is given as “Not Active”. Turning to `CC(C)C[C@@H]1NC(=O)[C@H](Cc2ccccc2)NC(=O)[C@H]([C@@H](C)O)NC(=O)[C@H](CC(C)C)NC(=O)[C@H](CC(C)C)NC(=O)[C@H](CCC(=O)O)NC(=O)[C@@H](N)CSCc2ccccc2CSC[C@@H](C(=O)O)NC(=O)[C@H](Cc2ccc(O)cc2)NC(=O)[C@H](C(C)C)NC(=O)[C@@H]2CCCN2C(=O)[C@H](Cc2ccc(O)cc2)NC(=O)CNC1=O` (H-CELLTFLGYPVYC-OH; linker 1-13 via oXylylene), the metabolised at 24 h in series [3] was determined as 30.5%. In the case of `CC(C)C[C@H](NC(=O)[C@H](Cc1ccccc1)NC(=O)[C@@H](NC(=O)[C@H](CC(C)C)NC(=O)[C@H](CC(C)C)NC(=O)[C@H](CCC(=O)O)NC(=O)[C@@H](N)CS)[C@@H](C)O)C(=O)NCC(=O)N[C@@H](Cc1ccc(O)cc1)C(=O)N1CCC[C@H]1C(=O)N[C@H](C(=O)N[C@@H](Cc1ccc(O)cc1)C(=O)N[C@@H](CS)C(=O)O)C(C)C` (H-CELLTFLGYPVYC-OH), the metabolised at 24 h in series [3] is 9.5%. In series [4], the result was inactive. Moreover, in series [5], the outcome was Active.
